Test results reported in US6358885B1, “Substituted phenylheterocyclic herbicides” (Mississippi State University, priority 1992, dated 2002).

Assays:
lambsquarters = experiment: Test C preemergence/postemergence greenhouse plant response rating 0 to 100; assay type: in vivo, Chenopodium album; conditions: for Plant response rating Lambsquarters: 0 to 100 scale
Method in brief: (§1)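 Compounds in non-phytotoxic solvent applied preemergence to sandy loam one day after planting, postemergence at the 1–4 leaf stage, or to ~2.5 cm floodwater over silt loam.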

wheat = experiment: as above; assay type: in vivo, Triticum aestivum; conditions: for Plant response rating, Wheat: 0 to 100 scale
Method in brief: as §1

corn [1] = experiment: Test B preemergence/postemergence greenhouse plant response rating 0 to 10; assay type: in vivo, Zea mays; conditions: for Plant response rating, Corn: 0 to 10 scale
Method in brief: (§2)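 Both application timings were run together: seeds got compound preemergence, and established seedlings (two to eighteen cm) got it postemergence. Non-phytotoxic solvent carried the chemical. Ratings are visual, versus controls, at twelve to sixteen days.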

bermudagrass = experiment: Test G preemergence/postemergence greenhouse plant response rating 0 to 100; assay type: in vivo, Cynodon dactylon; conditions: 0 to 100 scale
Method in brief: (§3)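 Pre- and postemergence treatments used compound in non-phytotoxic solvent on potted greenhouse plants grown from seed, rhizome or plant part. Postemergence plants were at the 2–4 leaf stage; damage was assessed by eye versus untreated pots after 13–21 days.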

velvetleaf [2] = experiment: Test B preemergence/postemergence greenhouse plant response rating 0 to 10; assay type: in vivo, Abutilon theophrasti; conditions: 0 to 10 scale
Method in brief: as §2

sugar beet = experiment: as above; assay type: in vivo, Beta vulgaris; conditions: 0 to 10 scale
Method in brief: as §2

velvetleaf [3] = experiment: Test C preemergence/postemergence greenhouse plant response rating 0 to 100; assay type: in vivo, Abutilon theophrasti; conditions: for Plant response rating, Velvetleaf: 0 to 100 scale
Method in brief: as §1

morningglory [4] = experiment: Test B preemergence/postemergence greenhouse plant response rating 0 to 10; assay type: in vivo, Ipomoea hederacea; conditions: 0 to 10 scale
Method in brief: as §2

morningglory [5] = experiment: Test C preemergence/postemergence greenhouse plant response rating 0 to 100; assay type: in vivo, Ipomoea hederacea; conditions: for Plant response rating, Morningglory: 0 to 100 scale
Method in brief: as §1

large crabgrass = experiment: Test G preemergence/postemergence greenhouse plant response rating 0 to 100; assay type: in vivo, Digitaria sanguinalis; conditions: 0 to 100 scale
Method in brief: as §3

chickweed = experiment: Test B preemergence/postemergence greenhouse plant response rating 0 to 10; assay type: in vivo, Stellaria media; conditions: for Plant response rating, Chickweed: 0 to 10 scale
Method in brief: as §2

soybean = experiment: as above; assay type: in vivo, Glycine max; conditions: 0 to 10 scale
Method in brief: as §2

crabgrass = experiment: Test C preemergence/postemergence greenhouse plant response rating 0 to 100; assay type: in vivo, Digitaria sanguinalis; conditions: for Plant response rating, Crabgrass: 0 to 100 scale
Method in brief: as §1

corn [6] = experiment: as above; assay type: in vivo, Zea mays; conditions: for Plant response rating, Corn: 0 to 100 scale
Method in brief: as §1

SMILES: C#CCOc1cc(-c2nn3c(c2Br)CCCC3)c(F)cc1Cl [Compound 26]
- Plant response rating Lambsquarters (lambsquarters; POSTEMERGENCE, 62 g/ha): 100
- Plant response rating Lambsquarters (lambsquarters; POSTEMERGENCE, 250 g/ha): 100
- Plant response rating (0 to 100), Lambsquarters (lambsquarters; POSTEMERGENCE, Rate 4 g/ha): 80
- Plant response rating Lambsquarters (lambsquarters; PREEMERGENCE, 62 g/ha): 100
- Plant response rating Lambsquarters (lambsquarters; PREEMERGENCE, 250 g/ha): 100
- Plant response rating (0 to 100), Lambsquarters (lambsquarters; PREEMERGENCE, Rate 4 g/ha): 80
- Plant response rating (0 to 100), Lambsquarters (lambsquarters; Rate 16 g/ha, POSTEMERGENCE): 80
- Plant response rating (0 to 100), Lambsquarters (lambsquarters; Rate 16 g/ha, PREEMERGENCE): 100
- Plant response rating, Wheat (wheat; POSTEMERGENCE, 62 g/ha): 40
- Plant response rating, Wheat (wheat; POSTEMERGENCE, 250 g/ha): 60
- Plant response rating (0 to 100), Wheat (wheat; POSTEMERGENCE, Rate 4 g/ha): 20
- Plant response rating, Wheat (wheat; PREEMERGENCE, 250 g/ha): 10
- Plant response rating (0 to 100), Wheat (wheat; PREEMERGENCE, Rate 4 g/ha): 0
- Plant response rating (0 to 100), Wheat (wheat; Rate 16 g/ha, POSTEMERGENCE): 20
- Plant response rating (0 to 100), Wheat (wheat; Rate 16 g/ha, PREEMERGENCE): 0
- Plant response rating (0 to 10 scale), Corn (corn [1]; POSTEMERGENCE, Rate 50 g/ha): 5
- Plant response rating, Corn (corn [1]; POSTEMERGENCE, Rate 200 g/ha): 5
- Plant response rating, Corn (corn [1]; PREEMERGENCE, Rate 50 g/ha): 4
- Plant response rating, Corn (corn [1]; Rate 200 g/ha, PREEMERGENCE): 6
- Plant response rating, Bermudagrass (bermudagrass; POSTEMERGENCE, Rate 125 g/ha): 0
- Plant response rating, Bermudagrass (bermudagrass; POSTEMERGENCE, Rate 250 g/ha): 0
- Plant response rating, Bermudagrass (bermudagrass; PREEMERGENCE, Rate 125 g/ha): 0
- Plant response rating, Bermudagrass (bermudagrass; PREEMERGENCE, Rate 250 g/ha): 0
- Plant response rating, Velvetleaf (velvetleaf [2]; POSTEMERGENCE, Rate 50 g/ha): 10
- Plant response rating, Velvetleaf (velvetleaf [2]; POSTEMERGENCE, Rate 200 g/ha): 10
- Plant response rating, Velvetleaf (velvetleaf [2]; PREEMERGENCE, Rate 50 g/ha): 10
- Plant response rating, Velvetleaf (velvetleaf [2]; Rate 200 g/ha, PREEMERGENCE): 10
- Plant response rating, Sugar beet (sugar beet; POSTEMERGENCE, Rate 50 g/ha): 10
- Plant response rating, Sugar beet (sugar beet; POSTEMERGENCE, Rate 200 g/ha): 10
- Plant response rating, Sugar beet (sugar beet; PREEMERGENCE, Rate 50 g/ha): 9
- Plant response rating, Sugar beet (sugar beet; Rate 200 g/ha, PREEMERGENCE): 10
- Plant response rating, Velvetleaf (velvetleaf [3]; POSTEMERGENCE, 62 g/ha): 100
- Plant response rating, Velvetleaf (velvetleaf [3]; POSTEMERGENCE, 250 g/ha): 100
- Plant response rating (0 to 100), Velvetleaf (velvetleaf [3]; POSTEMERGENCE, Rate 4 g/ha): 90
- Plant response rating, Velvetleaf (velvetleaf [3]; PREEMERGENCE, 250 g/ha): 100
- Plant response rating (0 to 100), Velvetleaf (velvetleaf [3]; PREEMERGENCE, Rate 4 g/ha): 50
- Plant response rating (0 to 100), Velvetleaf (velvetleaf [3]; Rate 16 g/ha, POSTEMERGENCE): 100
- Plant response rating (0 to 100), Velvetleaf (velvetleaf [3]; Rate 16 g/ha, PREEMERGENCE): 90
- Plant response rating, Morningglory (morningglory [4]; POSTEMERGENCE, Rate 50 g/ha): 9
- Plant response rating, Morningglory (morningglory [4]; POSTEMERGENCE, Rate 200 g/ha): 9
- Plant response rating, Morningglory (morningglory [4]; PREEMERGENCE, Rate 50 g/ha): 2
- Plant response rating, Morningglory (morningglory [4]; Rate 200 g/ha, PREEMERGENCE): 9
- Plant response rating, Morningglory (morningglory [5]; POSTEMERGENCE, 62 g/ha): 70
- Plant response rating, Morningglory (morningglory [5]; POSTEMERGENCE, 250 g/ha): 100
- Plant response rating (0 to 100), Morningglory (morningglory [5]; POSTEMERGENCE, Rate 4 g/ha): 50
- Plant response rating, Morningglory (morningglory [5]; PREEMERGENCE, 62 g/ha): 20
- Plant response rating, Morningglory (morningglory [5]; PREEMERGENCE, 250 g/ha): 100
- Plant response rating (0 to 100), Morningglory (morningglory [5]; PREEMERGENCE, Rate 4 g/ha): 0
- Plant response rating (0 to 100), Morningglory (morningglory [5]; Rate 16 g/ha, POSTEMERGENCE): 70
- Plant response rating (0 to 100), Morningglory (morningglory [5]; Rate 16 g/ha, PREEMERGENCE): 0
- Plant response rating, Large Crabgrass (large crabgrass; POSTEMERGENCE, Rate 125 g/ha): 0
- Plant response rating, Large Crabgrass (large crabgrass; POSTEMERGENCE, Rate 250 g/ha): 0
- Plant response rating, Large Crabgrass (large crabgrass; PREEMERGENCE, Rate 125 g/ha): 90
- Plant response rating, Large Crabgrass (large crabgrass; PREEMERGENCE, Rate 250 g/ha): 90
- Plant response rating (0 to 10 scale), Chickweed (chickweed; POSTEMERGENCE, Rate 50 g/ha): 10
- Plant response rating, Chickweed (chickweed; POSTEMERGENCE, Rate 200 g/ha): 10
- Plant response rating, Chickweed (chickweed; PREEMERGENCE, Rate 50 g/ha): 10
- Plant response rating, Chickweed (chickweed; Rate 200 g/ha, PREEMERGENCE): 10
- Plant response rating, Soybean (soybean; POSTEMERGENCE, Rate 50 g/ha): 8
- Plant response rating, Soybean (soybean; POSTEMERGENCE, Rate 200 g/ha): 9
- Plant response rating, Soybean (soybean; PREEMERGENCE, Rate 50 g/ha): 1
- Plant response rating, Soybean (soybean; Rate 200 g/ha, PREEMERGENCE): 3
- Plant response rating, Crabgrass (crabgrass; POSTEMERGENCE, 62 g/ha): 20
- Plant response rating, Crabgrass (crabgrass; POSTEMERGENCE, 250 g/ha): 40
- Plant response rating (0 to 100), Crabgrass (crabgrass; POSTEMERGENCE, Rate 4 g/ha): 0
- Plant response rating, Crabgrass (crabgrass; PREEMERGENCE, 62 g/ha): 20
- Plant response rating, Crabgrass (crabgrass; PREEMERGENCE, 250 g/ha): 60
- Plant response rating (0 to 100), Crabgrass (crabgrass; PREEMERGENCE, Rate 4 g/ha): 0
- Plant response rating (0 to 100), Crabgrass (crabgrass; Rate 16 g/ha, POSTEMERGENCE): 0
- Plant response rating (0 to 100), Crabgrass (crabgrass; Rate 16 g/ha, PREEMERGENCE): 0
- Plant response rating, Corn (corn [6]; POSTEMERGENCE, 62 g/ha): 50
- Plant response rating, Corn (corn [6]; POSTEMERGENCE, 250 g/ha): 50
- Plant response rating, Corn (corn [6]; PREEMERGENCE, 62 g/ha): 0
- Plant response rating, Corn (corn [6]; PREEMERGENCE, 250 g/ha): 30
- Plant response rating (0 to 100), Corn (corn [6]; PREEMERGENCE, Rate 4 g/ha): 0
- Plant response rating (0 to 100), Corn (corn [6]; Rate 4 g/ha, POSTEMERGENCE): 30
- Plant response rating (0 to 100), Corn (corn [6]; Rate 16 g/ha, POSTEMERGENCE): 40
- Plant response rating (0 to 100), Corn (corn [6]; Rate 16 g/ha, PREEMERGENCE): 0
